Assay results reported in ChEMBL document CHEMBL1130862, “Synthesis and acetylcholinesterase inhibitory activity of (+/-)-14-fluorohuperzine A” (Bioorg Med Chem Lett, 1998).

Biological target: T1, Acetylcholinesterase (Rattus norvegicus, UniProt P37136)
T1 sequence (P37136 whole entry): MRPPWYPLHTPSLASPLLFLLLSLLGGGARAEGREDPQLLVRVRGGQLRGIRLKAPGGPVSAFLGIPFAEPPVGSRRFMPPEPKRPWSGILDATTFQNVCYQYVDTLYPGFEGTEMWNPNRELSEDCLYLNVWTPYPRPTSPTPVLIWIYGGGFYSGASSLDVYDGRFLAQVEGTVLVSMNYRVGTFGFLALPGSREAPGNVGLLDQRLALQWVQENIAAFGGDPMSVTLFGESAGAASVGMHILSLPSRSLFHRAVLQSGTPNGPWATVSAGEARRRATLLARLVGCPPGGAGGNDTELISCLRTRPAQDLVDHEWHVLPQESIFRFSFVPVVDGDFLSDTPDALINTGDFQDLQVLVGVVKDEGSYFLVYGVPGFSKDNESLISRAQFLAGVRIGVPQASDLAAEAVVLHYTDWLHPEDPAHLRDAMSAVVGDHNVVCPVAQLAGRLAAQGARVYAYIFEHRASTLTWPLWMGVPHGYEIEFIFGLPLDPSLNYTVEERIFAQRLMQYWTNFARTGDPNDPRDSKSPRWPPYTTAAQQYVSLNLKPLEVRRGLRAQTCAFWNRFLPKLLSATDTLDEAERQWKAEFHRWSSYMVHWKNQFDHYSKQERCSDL
Assay: In vitro inhibitory activity against Acetylcholinesterase (AChE) using rat brain hippocampal crude homogenates.
Format: tissue-based, Hippocampus

For `CC1=CC2Cc3nc(O)ccc3C(N)(C1)/C2=C/CF` (stereo unspecified), the IC50 was 10 µM.
